Laboratory results: BigSolDB 2.1

NCC(CC(=O)O)c1ccc(Cl)cc1 (configuration not stated)
solubility (mole fraction)
Conditions	273.15 K	278.15 K	283.15 K	288.15 K	293.15 K	298.15 K	303.15 K	308.15 K	313.15 K	318.15 K
in 1,4-dioxane	–	–	–	0.000519	0.000568	0.000632	0.000704	0.000788	0.000888	0.000996
in 2-butanone	0.000439	0.000475	0.000522	0.000579	0.000639	0.000703	0.000792	0.0009	0.00101	0.00112
in DMAc	0.0934	0.0945	0.0957	0.0969	0.0982	0.0995	0.101	0.102	0.104	0.105
in DMF	0.0998	0.101	0.102	0.104	0.106	0.108	0.11	0.112	0.115	0.117
in acetone	0.000228	0.000236	0.000246	0.000258	0.000273	0.000289	0.000305	0.000322	0.00034	0.000358
in ethanol	1.95e-05	2.23e-05	2.58e-05	3e-05	3.4e-05	3.85e-05	4.33e-05	4.86e-05	5.39e-05	5.86e-05
in ethyl acetate	0.00412	0.00419	0.00427	0.00436	0.00446	0.00456	0.00467	0.00476	0.00488	0.00499
in isopropanol	3.16e-05	3.67e-05	4.17e-05	4.74e-05	5.35e-05	5.99e-05	6.67e-05	7.41e-05	8.21e-05	9.04e-05
in methanol	0.000109	0.000116	0.000124	0.000133	0.000143	0.000153	0.000162	0.000173	0.000186	0.000198
in n-butanol	5.73e-05	6.12e-05	6.61e-05	7.11e-05	7.68e-05	8.34e-05	9.06e-05	9.72e-05	0.000104	0.000113
in n-propanol	2.57e-05	3.01e-05	3.47e-05	4.03e-05	4.61e-05	5.35e-05	6.1e-05	6.85e-05	7.63e-05	8.77e-05
in toluene	0.0054	0.00569	0.00601	0.00639	0.00673	0.00709	0.00749	0.0079	0.00831	0.00866
